Results: ChEMBL document CHEMBL1151616, “Na+-K+-ATPase inhibitors from Lysimachia japonica” (J Nat Prod, 1984)

Experiment: Inhibition of Na+K+ATpase from pig cortex
Design: species or system Sus scrofa

Compound `C[C@@H]1O[C@@H](O[C@H]2C[C@@H](O)[C@]3(CO)[C@H]4[C@H](O)C[C@]5(C)[C@@H](C6=CC(=O)OC6)CC[C@]5(O)[C@@H]4CC[C@]3(O)C2)[C@H](O)[C@H](O)[C@H]1O` [OUABAIN] has an IC50 of 600 nM.
